Measured values taken from ChEMBL document CHEMBL1131203, “Second generation "peptoid" CCK-B receptor antagonists: identification and development of N-(adamantyloxycarbonyl)-alpha-methyl-(R)-tryptophan derivative (CI-1015) with an improved pharmacokinetic profile” (J Med Chem, 1998).

Experiments:
[1] = molecular target: T1, Cholecystokinin receptor type A (Rattus norvegicus, UniProt P30551); assay: Inhibitory concentration against radioligand [125I]Bolton-Hunter labeled CCK-8 to cholecystokinin type A receptor in the rat pancreas
T1 sequence (P30551 whole entry): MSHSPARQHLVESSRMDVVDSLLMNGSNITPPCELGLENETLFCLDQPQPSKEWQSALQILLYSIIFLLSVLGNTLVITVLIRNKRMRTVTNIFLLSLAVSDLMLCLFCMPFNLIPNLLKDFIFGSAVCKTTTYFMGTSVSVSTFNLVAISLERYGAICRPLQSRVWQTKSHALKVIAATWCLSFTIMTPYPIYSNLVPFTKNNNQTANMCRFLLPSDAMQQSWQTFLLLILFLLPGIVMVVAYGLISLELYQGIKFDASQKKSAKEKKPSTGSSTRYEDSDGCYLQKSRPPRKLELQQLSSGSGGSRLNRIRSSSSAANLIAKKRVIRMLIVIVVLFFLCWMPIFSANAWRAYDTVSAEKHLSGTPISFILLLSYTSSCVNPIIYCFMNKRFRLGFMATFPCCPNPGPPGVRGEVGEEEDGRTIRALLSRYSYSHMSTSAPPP

[2] = Ratio of IC50 towards CCK-A receptor and CCK-B receptor
[3] = molecular target: T2, Gastrin/cholecystokinin type B receptor (Mus musculus, UniProt P56481); assay: Inhibitory concentration against radioligand [125I]Bolton-Hunter labeled CCK-8 to cholecystokinin type B receptor in the mouse cerebral cortex; assay type: tissue-based
T2 sequence (P56481 whole entry): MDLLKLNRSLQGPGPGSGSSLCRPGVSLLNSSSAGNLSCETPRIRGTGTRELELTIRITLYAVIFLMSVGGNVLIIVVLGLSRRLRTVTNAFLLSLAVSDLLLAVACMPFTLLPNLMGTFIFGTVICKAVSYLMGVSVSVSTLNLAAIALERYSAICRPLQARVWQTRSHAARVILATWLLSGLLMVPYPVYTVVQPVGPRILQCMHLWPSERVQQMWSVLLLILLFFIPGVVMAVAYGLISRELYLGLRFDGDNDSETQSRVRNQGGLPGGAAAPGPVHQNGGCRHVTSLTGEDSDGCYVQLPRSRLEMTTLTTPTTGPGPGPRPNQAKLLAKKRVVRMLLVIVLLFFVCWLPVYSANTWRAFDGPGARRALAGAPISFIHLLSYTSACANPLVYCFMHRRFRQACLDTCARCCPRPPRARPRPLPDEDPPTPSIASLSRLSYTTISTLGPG

SMILES	IC50 [1] [nM]	Ratio [2]	IC50 [3] [nM]
C[C@](Cc1c[nH]c2ccccc12)(NC(=O)OC1C2CC3CC(C2)CC1C3)C(=O)NC1CCCCC1C#N (stereo partly specified)	1500	429	3.5
COC(=O)C1(NC(=O)[C@@](C)(Cc2c[nH]c3ccccc23)NC(=O)OC2C3CC4CC(C3)CC2C4)CCCCC1 (stereo partly specified)	1990	10.4	191
C[C@](Cc1c[nH]c2ccccc12)(NC(=O)OC1C2CC3CC(C2)CC1C3)C(=O)NC1CCCCC1C(=O)O (stereo partly specified)	701	708	0.99
C[C@](Cc1c[nH]c2ccccc12)(NC(=O)OC1C2CC3CC(C2)CC1C3)C(=O)NC1CC2CCC1C2 (stereo in doubt; 22) [listing 1 of 2 here]	1250	–	166
C[C@](Cc1c[nH]c2ccccc12)(NC(=O)OC1C2CC3CC(C2)CC1C3)C(=O)NC1CCCCC1 (stereo partly specified)	2400	48	50
C[C@](Cc1c[nH]c2ccccc12)(NC(=O)OC1C2CC3CC(C2)CC1C3)C(=O)NC1(CO)CCCCC1 (stereo partly specified)	1510	12.5	121
COC[C@H]1CCCN1NC(=O)[C@@](C)(Cc1c[nH]c2ccccc12)NC(=O)OC1C2CC3CC(C2)CC1C3 (stereo partly specified)	3430	1370	2.5
C[C@](Cc1c[nH]c2ccccc12)(NC(=O)OC1C2CC3CC(C2)CC1C3)C(=O)NC1CC2CCC1C2 (stereo in doubt; 21) [listing 1 of 2 here]	–	18.6	–
C[C@](Cc1c[nH]c2ccccc12)(NC(=O)OC1C2CC3CC(C2)CC1C3)C(=O)NC1CC2CCC1C2 (stereo in doubt; 21) [listing 2 of 2 here]	1460	–	78.5
C[C@](Cc1c[nH]c2ccccc12)(NC(=O)OC1C2CC3CC(C2)CC1C3)C(=O)NC1CC2CCC1C2 (stereo in doubt; 22) [listing 2 of 2 here]	–	7.5	–
C[C@](Cc1c[nH]c2ccccc12)(NC(=O)OC1C2CC3CC(C2)CC1C3)C(=O)CNC1CCCCC1 (stereo partly specified)	3330	10.6	314
C[C@](Cc1c[nH]c2ccccc12)(NC(=O)OC1C2CC3CC(C2)CC1C3)C(=O)NN1CCCCCC1 (stereo partly specified)	3040	248	12.2
C[C@](Cc1c[nH]c2ccccc12)(NC(=O)OC1C2CC3CC(C2)CC1C3)C(=O)NC1CCCCCC1 (stereo partly specified)	3230	71	45.5
COC[C@@H]1CCCN1NC(=O)[C@@](C)(Cc1c[nH]c2ccccc12)NC(=O)OC1C2CC3CC(C2)CC1C3 (stereo partly specified)	6900	105	65.4
